From patent US8173668B1 (Alcon Research, Ltd., priority 2007, dated 2012)

How the values were obtained:
[1] = target: T1, B2-receptors in h-TM cells (Homo sapiens, UniProt P30411); test: [Ca2+]i mobilization (FLIPR) in h-TM cells, agonist mode; type: cell-based; settings: h-TM cells, mean ± SEM
T1 construct: B2-receptor proteins in h-TM, h-CM and h-NPE cells; endogenous in cells; host or cells: human trabecular meshwork (h-TM), human ciliary muscle (h-CM) and human non-pigmented ciliary epithelial (h-NPE) cells
T1 sequence (P30411 1-391): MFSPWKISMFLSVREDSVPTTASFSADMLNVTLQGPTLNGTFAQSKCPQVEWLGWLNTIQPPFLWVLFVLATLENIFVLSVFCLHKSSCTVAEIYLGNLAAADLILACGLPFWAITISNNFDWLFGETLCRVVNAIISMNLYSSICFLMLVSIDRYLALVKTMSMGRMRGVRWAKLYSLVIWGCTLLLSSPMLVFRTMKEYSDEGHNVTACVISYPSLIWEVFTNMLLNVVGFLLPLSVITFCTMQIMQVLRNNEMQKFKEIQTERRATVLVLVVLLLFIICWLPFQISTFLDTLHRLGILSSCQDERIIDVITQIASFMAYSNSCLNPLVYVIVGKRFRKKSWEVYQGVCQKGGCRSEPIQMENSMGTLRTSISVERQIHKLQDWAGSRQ
Description: (§1) On the day of the experiment, one vial of FLIPR Calcium Assay Kit dye is re-suspended in 50 mL of a FLIPR buffer consisting of Hank's Balanced Salt Solution (HBSS), 20 mM HEPES, and 2.5 mM probenecid, pH 7.4. Cells are loaded with the calcium-sensitive dye by addition of an equal volume (50 μL) to each well of the 96-well plate and incubated with dye for 1 h at 23° C. After this time, the test compound plate and cell plate are placed in the FLIPR instrument. At the beginning of an experimental run, a signal test is performed to check the basal fluorescence signal from the dye-loaded cells and the uniformity of the signal across the plate. The basal fluorescence is adjusted between 8000-12000 counts by modifying the exposure time, the camera F-stop, or the laser power. Instrument settings for a typical assay are the following: laser power 0.3-0.6 W, camera F-stop F/2, and exposure time 0.4 sec.
(§2) Fluorescence data are collected in real-time at 1.0 sec intervals for the first 60 secs and at 6.0 sec intervals for an additional 120 secs. […] The data are then analyzed using an automated, iterative, sigmoidal curve-fitting computer program to obtain the potency and intrinsic activities of the test agents as previously described (Sharif et al. J. Pharmacol. Exp. Ther. 286: 1094-1102, 1998; Sharif et al. Invest. Ophthalmol. Vis. Sci. 39:2562-2571, 1998; Kelly et al. J. Pharmacol. Exp. Ther. 304: 238-245, 2003). The sources of materials and reagents for such assays can be found in the references cited above.

[2] = target: T2, B2-receptors in h-NPE cells (Homo sapiens, UniProt P30411); test: [Ca2+]i mobilization (FLIPR) in h-NPE cells, agonist mode; type: cell-based; settings: h-NPE cells, mean ± SEM
T2 construct: B2-receptor proteins in h-TM, h-CM and h-NPE cells; endogenous in cells; host or cells: human trabecular meshwork (h-TM), human ciliary muscle (h-CM) and human non-pigmented ciliary epithelial (h-NPE) cells
T2 sequence (P30411 1-391): T1 sequence (P30411 1-391)
Description: as §1, §2

[3] = tested on: conscious ocular hypertensive cynomolgus monkey eyes; test: IOP response in lasered (hypertensive) eyes of conscious cynomolgus monkeys, topical ocular; type: in vivo
Description: Intraocular pressure (IOP) is determined with an Alcon Pneumatonometer (Alcon Laboratories, Inc., Fort Worth, Tex.) after light corneal anesthesia with 0.1% proparacaine. Right eyes are hypertensive as a result of laser trabeculoplasty. After a baseline IOP measurement, test compound is instilled in the right eyes only of 8-10 cynomolgus monkeys. Vehicle is instilled in the right eyes of 5-6 additional animals. Subsequent IOP measurements are taken at 1, 3, and 6 hours. IOP measurements are also taken on left eyes (normotensive and untreated) at each of these time points. The percent change in IOP from baseline is determined for each animal for every IOP measurement (Sharif et al. J. Ocular Pharmacol. Ther. 17: 305-317, 2001; May et al., J Pharmacol Exp Ther. 306: 301-309, 2003; Sharif et al. Invest. Ophthalmol. Vis. Res. 47: 4001-4010, 2006). Group mean and standard error of the mean (SEM) are calculated for each time point. […] In cases where the compound of invention has poor ocular bioavailability, the compound may need to be administered intracamerally or intravitreally in order to observe the IOP-lowering efficacy.
The IOP-lowering effect was slow to develop but significant IOP reduction was observed even 3 hours post-dosing with maximum ocular hypotension observed 16-48 hours post-dosing (Tables 6-8; FIGS. 3b-5).

[4] = read-out: Potency (EC50), [Ca2+]i mobilization

Q: For `CNC(=O)c1ccc(/C=C/C(=O)NCC(=O)N(C)c2ccc(Cl)c(COc3cccc4c(OCc5ccccn5)cc(C)nc34)c2Cl)cc1` [FR-190997], which Emax ([1]; HTM, read-out: Intrinsic Activity (Emax, % max relative to BK)) is on record?
A: The Emax was 86%.

Q: What about the EC50 [1, 4] of the same compound?
A: The EC50 was 167 ± 29 nM.

Q: What about the Emax ([2]; read-out: Intrinsic Activity (Emax, % max relative to BK)) of the same compound?
A: Its Emax is 32%.

Q: And the EC50 [2, 4]?
A: The EC50 was 384 ± 39 nM.

Q: What about the “% Change in IOP” value ([3]; Study 1, 30 μg topical ocular, Dose 1/1 hr) of the same compound?
A: Its value is −4.6 ± 4.4%.

Q: And the “% Change in IOP” value ([3]; Study 1, 30 μg topical ocular, Dose 1/3 hr)?
A: Its value is −16.4 ± 5.3%.

Q: And the “% Change in IOP” value ([3]; Study 1, 30 μg topical ocular, Dose 1/6 hr)?
A: Its value is −34.5 ± 7.5%.

Q: And the “% Change in IOP” value ([3]; Study 1, 30 μg topical ocular, Dose 2/16 hr)?
A: Its value is −51.6 ± 5.4%.

Q: And the “% Change in IOP” value ([3]; Study 1, 30 μg topical ocular, Dose 2/40 hr)?
A: The value was −35.5 ± 6.3%.

Q: What about the “% Change in IOP” value ([3]; Study 1, 30 μg topical ocular, Dose 2/132 hr) of the same compound?
A: Its value is −3.5 ± 3.7%.

Q: And the “% Change in IOP” value ([3]; Study 2, 3 μg topical ocular, Dose 1/24 hr)?
A: The value was −25.9 ± 0.6%.

Q: And the “% Change in IOP” value ([3]; Study 2, 3 μg topical ocular, Dose 1/48 hr)?
A: Its value is −19.7 ± 1.9%.

Q: And the “% Change in IOP” value ([3]; Study 2, 3 μg topical ocular, Dose 1/120 hr)?
A: Its value is −7.7 ± 0.8%.

Q: What about the “% Change in IOP” value ([3]; Study 3, 10 μg topical ocular, Dose 1/24 hr) of the same compound?
A: Its value is −27.2 ± 0.1%.

Q: And the “% Change in IOP” value ([3]; Study 3, 10 μg topical ocular, Dose 1/48 hr)?
A: The value was −32.5 ± 2.4%.

Q: What about the “% Change in IOP” value ([3]; Study 3, 10 μg topical ocular, Dose 1/120 hr) of the same compound?
A: The value was −9.7 ± 0.6%.

Q: And the “% Change in IOP” value ([3]; Table 8 Study 1, 300 μg topical ocular, Dose 1/1 hr)?
A: The value was 2.0 ± 0.6%.

Q: What about the “% Change in IOP” value ([3]; Table 8 Study 1, 300 μg topical ocular, Dose 1/3 hr) of the same compound?
A: The value was −6.9 ± 2.9%.

Q: What about the “% Change in IOP” value ([3]; Table 8 Study 1, 300 μg topical ocular, Dose 1/6 hr) of the same compound?
A: Its value is −24.8 ± 10.3%.

Q: What about the “% Change in IOP” value ([3]; Table 8 Study 2, 300 μg topical ocular, Dose 1/1 hr) of the same compound?
A: The value was 6.7 ± 2.1%.

Q: What about the “% Change in IOP” value ([3]; Table 8 Study 2, 300 μg topical ocular, Dose 1/3 hr) of the same compound?
A: The value was −7.5 ± 3.1%.

Q: What about the “% Change in IOP” value ([3]; Table 8 Study 2, 300 μg topical ocular, Dose 1/6 hr) of the same compound?
A: Its value is −15.4 ± 5.7%.

Q: What about the “% Change in IOP” value ([3]; Table 8 Study 3, 600 μg topical ocular, Dose 1/1 hr) of the same compound?
A: Its value is −0.4 ± 0.2%.

Q: And the “% Change in IOP” value ([3]; Table 8 Study 3, 600 μg topical ocular, Dose 1/3 hr)?
A: Its value is −10.6 ± 4.4%.

Q: And the “% Change in IOP” value ([3]; Table 8 Study 3, 600 μg topical ocular, Dose 1/6 hr)?
A: The value was −27.7 ± 11.3%.

Q: What about the “% Change in IOP” value ([3]; Table 8 Study 4, 600 μg topical ocular, Dose 1/1 hr) of the same compound?
A: The value was 4.9 ± 1.6%.

Q: And the “% Change in IOP” value ([3]; Table 8 Study 4, 600 μg topical ocular, Dose 1/3 hr)?
A: The value was −4.6 ± 2.0%.

Q: And the “% Change in IOP” value ([3]; Table 8 Study 4, 600 μg topical ocular, Dose 1/6 hr)?
A: The value was −18.4 ± 6.9%.

Q: And the “% Change in IOP” value ([3]; Table 8 Study 4, 600 μg topical ocular, Dose 2/16 hr)?
A: The value was −37.9 ± 14.1%.

Q: What about the “% Change in IOP” value ([3]; Table 8 Study 4, 600 μg topical ocular, Dose 2/40 hr) of the same compound?
A: Its value is −31.2 ± 11.7%.

Q: What about the “% Change in IOP” value ([3]; Table 8 Study 4, 600 μg topical ocular, Dose 2/64 hr) of the same compound?
A: The value was −16.1 ± 6.1%.

Q: And the “lowering of IOP” value ([3]; topical ocular, 0.03-600 μg/eye)?
A: The value was “significant dose-dependent lowering of IOP”.
